Test results taken from patent US11786548B2, “Trace element compositions, methods of making and use” (priority 2020, dated 2023).
“And” between values parts separate entries of the source, which are not always exact repeats. Equal values may be shown once.

Assay: Stability study of injectable trace element composition in parenteral nutrition admixtures (assay test for zinc, copper, selenium, manganese)
Type: physicochemical
From the text: In order to establish stability data for parenteral nutrition admixed with the injectable compositions of trace elements, we conducted a stability study of injectable trace element composition (trace elements injectable composition, USP) in parenteral nutrition admixtures (assay test); a pH study of parenteral nutrition (PN) admixtures upon addition of injectable trace element composition (trace elements injectable composition, USP); a compatibility study of injectable trace element composition (trace elements injectable composition, USP) in parenteral nutrition admixtures; and a reduced inoculation antimicrobial effectiveness study for injectable trace element composition (trace elements injectable composition, USP) in parenteral nutrition admixtures. […]

O.O.O.O.O.O=S(=O)([O-])[O-].[Cu+2] [Copper, cupric sulfate pentahydrate]
Assay Day 0: 109.7% | Assay Day 5: 98.7% and 98.8% | Assay Day 7: 97.8% | Assay Day 10: 99.9% | Assay Day 14: 105.5% and 106.0%

O.O.O.O.O.O.O.O=S(=O)([O-])[O-].[Zn+2] [Zinc, zinc sulfate heptahydrate]
Assay Day 0: 96.5% and 98.5% | Assay Day 5: 93.9% and 94.4% | Assay Day 7: 93.8% and 96.5% | Assay Day 10: 97.0% and 96.2% | Assay Day 14: 96.0% and 96.3%
